From patent US20260042769A1, “TRIARYL AGONISTS OF ALPHA-2 ADRENERGIC RECEPTORS” (ALCEPTOR THERAPEUTICS, INC., priority 2023, published 2026)

Biological target: T1, human ADRA2B receptor (Homo sapiens, UniProt P18089)
T1 construct: expressed in transfected cells
T1 sequence (P18089 1-450): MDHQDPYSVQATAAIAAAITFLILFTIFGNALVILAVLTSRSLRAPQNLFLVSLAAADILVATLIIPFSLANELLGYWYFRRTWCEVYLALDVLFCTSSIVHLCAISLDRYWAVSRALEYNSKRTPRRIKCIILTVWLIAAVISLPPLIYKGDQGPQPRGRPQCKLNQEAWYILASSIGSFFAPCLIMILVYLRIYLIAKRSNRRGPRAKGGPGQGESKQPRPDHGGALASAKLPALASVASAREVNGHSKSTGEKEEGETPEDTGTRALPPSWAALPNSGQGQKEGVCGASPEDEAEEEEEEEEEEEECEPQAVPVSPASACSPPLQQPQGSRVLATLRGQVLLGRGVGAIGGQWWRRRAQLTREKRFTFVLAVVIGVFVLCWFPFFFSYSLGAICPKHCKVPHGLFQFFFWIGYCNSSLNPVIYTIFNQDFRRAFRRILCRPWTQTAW
Assay: ADRA2B arrestin agonist assay
Assay type: cell-based
Settings: CHO-K1 cells stably expressing human ADRA2B; read-out: Beta-Arrestin - Human Alpha2B EC50
Procedure: ADRA2A and ADRA2B Arrestin Agonist Assay Method
The arrestin assay uses frozen CHO-K1 cell lines stably expressing human ADRA2A and ADRA2B receptors. Cells are frozen following normal cell freezing protocols. Briefly, cells are washed with PBS and then dissociated with 0.25% trypsin. Dissociated cells are quenched in full media and then collected by centrifugation at 290×g for 5 minutes. […] Cells are stored at −80° C. (or in liquid N2 if stored >6 months) until the day of the assay.
On the day before the assay, frozen cells are thawed in a 37° C. water bath, brought up in 20 mL of full media, and collected via centrifugation at 290×g for 5 minutes. […] Cells are incubated overnight in a 37° C., 5% CO2 cell incubator.
On the day of the assay, agonists are diluted in Opti-MEM to 3.5x of the final assay concentration. 4 μL of agonists are added to the cells and incubated for 2 hours at 37° C. in a 5% CO2 cell incubator. 6 μL of arrestin detection reagents are dispensed onto the cells and the plates are incubated for 2 hours at room temperature. […] Plates are read on an Envision luminescence plate reader.

| Structure (SMILES) | EC50 [nM] |
| --- | --- |
| Cc1cccc([C@H](Cc2cnco2)c2c[nH]cn2)c1C [Compound 364, 5-[(S)-2-(4-imidazolyl)-2-(2,3-xylyl)ethyl]-1,3-oxazole] | < 10 |
| Cc1cccc(C(Cc2cn(C3CC3)nn2)c2c[nH]cn2)c1C (centres unmarked) [Compound 404, 1-cyclopropyl-4-[2-(4-imi-dazolyl)-2-(2,3-xylyl)ethyl]-1H-1,2,3-triazole] | < 10 |
| Cc1nc(C[C@H](c2c[nH]cn2)c2cccc(C)c2C)c(C)o1 [Compound 380, 4-[(S)-2-(4-imidazolyl)-2-(2,3-xylyl)ethyl]-2,5-dimethyl-1,3-oxazole] | > 500 |
| Fc1c(Cl)cccc1C(Cc1cc[nH]n1)c1c[nH]cn1 (centres unmarked) [Compound 251, 3-[2-(3-chloro-2-fluorophenyl)-2-(4-imidazolyl)ethyl]py-razole] | 50 to 500 |
| Cc1cccc([C@@H](Cc2cnco2)c2c[nH]cn2)c1F [Compound 369, 5-[(R)-2-(2-fluoro-3-tolyl)-2-(4-imidazolyl)ethyl]-1,3-oxazole] | > 500 |
| COc1nccc(CC(c2c[nH]cn2)c2ccccc2S(=O)(=O)N2CCCC2)n1 (centres unmarked) [Compound 358, 4-{2-(4-imidazolyl)-2-[o-(1-pyrrolidinylsulfonyl)phenyl]ethyl}-2-methoxypyrimidine] | > 500 |
| Cc1cccc([C@H](Cc2cocn2)c2c[nH]cn2)c1C [Compound 366, 4-[(S)-2-(4-imidazolyl)-2-(2,3-xylyl)ethyl]-1,3-oxazole] | < 10 |
| Cc1nccc(CC(c2ccc3cccnc3c2)c2c[nH]cn2)n1 (centres unmarked) [Compound 161, 4-[2-(4-imidazolyl)-2-(7-quinolyl)ethyl]-2-methylpyrimidine] | > 500 |
| COc1nccc(CC(c2c[nH]cn2)c2cccc3c(C4CC4)noc23)n1 (centres unmarked) [Compound 357, 3-cyclopropyl-7-[1-(4-imidazolyl)-2-(2-methoxy-4-pyrimidinyl)ethyl]-1,2-benzisoxazole] | > 500 |
| COc1c(C)cccc1C(Cc1cocn1)c1c[nH]cn1 (centres unmarked) [Compound 388, 4-[2-(4-imidazolyl)-2-(2-methoxy-3-tolyl)ethyl]-1,3-oxazole-formic acid (1/1)] | > 500 |
| COc1nccc(CC(c2c[nH]cn2)c2ccc(C)c(F)c2F)n1 (centres unmarked) [Compound 189, 4-[2-(2,3-difluoro-4-tolyl)-2-(4-imidazolyl)ethyl]-2-methoxypyrimidine] | > 500 |
| Cc1cccc([C@H](Cc2ccnc(C(C)(C)O)n2)c2c[nH]cn2)c1C [Compound 211, 2-{4-[(S)-2-(4-imidazolyl)-2-(2,3-xylyl)ethyl]-2-pyrimidinyl}-2-propanol] | > 500 |
| Fc1c(Cl)cccc1C(Cc1cnco1)c1c[nH]cn1 (centres unmarked) [Compound 392, 5-[2-(3-chloro-2-fluorophenyl)-2-(4-imidazolyl)ethyl]-1,3-oxazole] | 10 to 50 |
| Cc1cccc(C(Cc2ccsn2)c2c[nH]cn2)c1C (centres unmarked) [Compound 245, 3-[2-(4-imidazolyl)-2-(2,3-xylyl)ethyl]isothiazole] | < 10 |
| Cn1ccc2cccc(C(Cc3cc[nH]n3)c3c[nH]cn3)c21 (centres unmarked) [Compound 253, 3-[2-(4-imidazolyl)-2-(1-methyl-7-indolyl)ethyl]pyrazole] | > 500 |
| Cc1nc(C[C@H](c2c[nH]cn2)c2cccc(C)c2C)co1 [Compound 374, 4-[(S)-2-(4-imidazolyl)-2-(2,3-xylyl)ethyl]-2-methyl-1,3-oxazole] | > 500 |
| Cc1nccc(CC(c2ccc3c(c2)OCCO3)c2c[nH]cn2)n1 (centres unmarked) [Compound 175, 4-[2-(2,3-dihydro-1,4-benzodioxin-6-yl)-2-(4 imidazolyl)ethyl]-2-methylpyrimidine] | > 500 |

The remaining lines, values ahead:

| EC50 [nM] | Structure (SMILES) |
| --- | --- |
| > 500 | COc1nccc(CC(c2ccc(F)c(F)c2)c2c[nH]cn2)n1 (centres unmarked) [Compound 162, 4-[2-(3,4-difluorophenyl)-2-(4-imidazolyl)ethyl]-2-methoxypyrimidine] |
| > 500 | COc1nccc(C[C@H](c2c[nH]cn2)c2cccc3ccn(C)c23)n1 [Compound 349, 4-[(S)-2-(4-imidazolyl)-2-(1-methyl-7-indolyl)ethyl]-2-methoxypyrimidine] |
| > 500 | c1cc2c(c([C@@H](Cc3cc[nH]n3)c3c[nH]cn3)c1)OCC2 [Compound 237, 3-[(R)-2-(2,3-dihydro-1-benzofuran-7-yl)-2-(4-imidazolyl)ethyl]pyrazole] |
| < 10 | Cc1cccc(C(Cc2nc(CO)ccc2F)c2c[nH]cn2)c1C (centres unmarked) [Compound 317, {5-fluoro-6-[2-(4-imidazolyl)-2-(2,3-xylyl)ethyl]-2-pyridyl}methanol] |
| < 10 | CC(C)n1cc(C[C@H](c2c[nH]cn2)c2cccc3c2OCC3)cn1 [Compound 298, 4-[(S)-2-(2,3-dihydro-1-benzofuran-7-yl)-2-(4-imidazolyl)ethyl]-1-isopropylpyrazole] |
| 10 to 50 | Cc1cccc(C(Cc2cccn3ccnc23)c2c[nH]cn2)c1C (centres unmarked) [Compound 402, 4-[2-(1,3a-diaza-7-indenyl)-1-(2,3-xylyl)ethyl]imidazole] |
| < 10 | Cc1cccc(C(Cc2ccnc(C3CCO3)n2)c2c[nH]cn2)c1C (centres unmarked) [Compound 405, 4-[2-(2,3-dimethylphenyl)-2-(1H-imidazol-4-yl)ethyl]-2-(oxetan-2-yl)pyrimidine] |
| 50 to 500 | c1cc2c(c([C@H](Cc3cocn3)c3c[nH]cn3)c1)OCC2 [Compound 372, 4-[(S)-2-(2,3-dihydro-1-benzofuran-7-yl)-2-(4-imidazolyl)ethyl] 1,3-oxazole] |
| 50 to 500 | COc1nccc(CC(c2c[nH]cn2)c2cccc3cnn(C)c23)n1 (centres unmarked) [Compound 350, 7-[1-(4-imidazolyl)-2-(2-methoxy-4-pyrimidinyl)ethyl]-1-methyl-1H-indazole] |
| < 10 | Cc1cccc(C(Cc2ccncc2Cl)c2c[nH]cn2)c1C (centres unmarked) [Compound 396, 4-[2-(3-chloro-4-pyridyl)-1-(2,3-xylyl)ethyl]imidazole] |
| < 10 | Cc1cccc(C(Cc2ccnc(COC3CC3)n2)c2c[nH]cn2)c1C (centres unmarked) [Compound 208, 2-(cyclopropoxymethyl)-4-[2-(4-imidazolyl) 2-(2,3-xylyl)ethyl]pyrimidine] |
| < 10 | Cc1cc(C[C@@H](c2c[nH]cn2)c2cccc(C)c2F)ncn1 [Compound 143, 4-[(R)-2-(2-fluoro-3-tolyl)-2-(4-imidazolyl)ethyl]-6-methylpyrimidine] |
| < 10 | Cc1cccc([C@H](Cc2ccn(CF)n2)c2c[nH]cn2)c1C [Compound 261, 3-[(S)-2-(4-imidazolyl)-2-(2,3-xylyl)ethyl]-1-(fluoromethyl)pyra-zole] |
| < 10 | Cc1cccc([C@@H](Cc2cccc(C(C)(C)O)n2)c2c[nH]cn2)c1C [Compound 304, 2-{6-[(R)-2-(4-imidazolyl) 2-(2,3-xylyl)ethyl]-2-pyridyl}-2-propanol] |
| < 10 | Cc1cccc(C(Cc2ccc(C(N)=O)nc2)c2c[nH]cn2)c1C (centres unmarked) [Compound 288, 5-[2-(4-imidazolyl)-2-(2,3-xylyl)ethyl]-2-pyridinecarboxamide] |
| 50 to 500 | COc1nccc(CC(c2cccc(Cl)c2)c2c[nH]cn2)n1 (centres unmarked) [Compound 340, 4-[2-(m-chlorophenyl)-2-(4-imidazolyl)ethyl]-2-methoxypyrimidine] |
| 10 to 50 | Cc1cccc(C(Cc2cnc3cnccn23)c2c[nH]cn2)c1C (centres unmarked) [Compound 285, 3-[2-(4-imidazolyl)-2-(2,3-xylyl)ethyl]-1,3a,6-triazaindene] |
| < 10 | Cc1nccc(CC(c2c[nH]cn2)c2cccc3c2cnn3C)n1 (centres unmarked) [Compound 167, 4-[1-(4-imidazolyl)-2-(2-methyl-4-pyrimidinyl)ethyl]-1-methyl-1H-indazole] |
| 50 to 500 | Cc1ncncc1CC(c1c[nH]cn1)c1cccc2c1OCC2 (centres unmarked) [Compound 268, 5-[2-(2,3-dihydro-1-benzofuran-7-yl)-2-(4-imidazolyl)ethyl]-4-methylpyrimidine] |
| < 10 | CNc1ccc(CC(c2c[nH]cn2)c2cccc(C)c2C)cn1 (centres unmarked) [Compound 270, N-methyl{5-[2-(4-imidazolyl)-2-(2,3-xylyl)ethyl]-2-pyridyl}amine] |
| < 10 | Cc1cccc([C@@H](Cc2ccnc(C(C)(C)O)n2)c2c[nH]cn2)c1C [Compound 212, 2-{4-[(R)-2-(4-imidazolyl)-2-(2,3-xylyl)ethyl]-2-pyrimidinyl}-2-propanol] |
| 50 to 500 | COc1c(Cl)cccc1C(Cc1ccnc(C)n1)c1c[nH]cn1 (centres unmarked) [Compound 187, 4-[2-(3-chloro-2-methoxyphenyl)-2-(4-imidazolyl)ethyl]-2-methylpyrimidine] |
| < 10 | Cc1cc(CC(c2c[nH]cn2)c2cccc(C)c2C)c(Cl)cn1 (centres unmarked) [Compound 395, 4-[2-(5-chloro-2-methyl-4-pyridyl)-1-(2,3-xylyl)ethyl]imidazole] |
| < 10 | Cc1nccc(CC(c2c[nH]cn2)c2cccc(Cl)c2Cl)n1 (centres unmarked) [Compound 192, 4-[2-(2,3-dichlorophenyl)-2-(4-imidazolyl)ethyl]-2-methylpyrimidine] |
